According to ChEMBL document CHEMBL1123145, “Synthesis of pyrrolizidine alkaloids indicine, intermedine, lycopsamine, and analogues and their N-oxides. Potential antitumor agents” (1985):

Columns and labels:
Format in all cases: functional, Mus musculus
P388 [1] = assay: Number of Survivors determined for antitumor activity against P388 Lymphocytic Leukemia system on day 5 at a dose of 17 mg/kg (6 out of 6)
P388 [2] = assay: Number of Survivors determined for antitumor activity against P388 Lymphocytic Leukemia system on day 5 at a dose of 34 mg/kg (6 out of 6)
P388 [3] = assay: Survival rate of the animals determined for antitumor activity against P388 Lymphocytic Leukemia system at a dose of 17 mg/kg
P388 [4] = assay: Survival rate of the animals determined for antitumor activity against P388 Lymphocytic Leukemia system at a dose of 34 mg/kg
P388 [5] = assay: Number of Survivors determined for antitumor activity against P388 Lymphocytic Leukemia system on day 5 at a dose of 68 mg/kg(6 out of 6)
P388 [6] = assay: Number of Survivors determined for antitumor activity against P388 Lymphocytic Leukemia system on day 5 at a dose of 8.5 mg/kg(6 out of 6)
P388 [7] = assay: Weight difference observed in survivors treated for antitumor activity against P388 Lymphocytic Leukemia system at a dose of 17 mg/kg
P388 [8] = assay: Survival rate of the animals determined for antitumor activity against P388 Lymphocytic Leukemia system at a dose of 68 mg/kg
P388 [9] = assay: Survival rate of the animals determined for antitumor activity against P388 Lymphocytic Leukemia system at a dose of 8.5 mg/kg
P388 [10] = assay: Weight difference observed in survivors treated for antitumor activity against P388 Lymphocytic Leukemia system at a dose of 34 mg/kg
P388 [11] = assay: Weight difference observed in survivors treated for antitumor activity against P388 Lymphocytic Leukemia system at a dose of 68 mg/kg
P388 [12] = assay: Weight difference observed in survivors treated for antitumor activity against P388 Lymphocytic Leukemia system at a dose of 8.5 mg/kg
P388 [13] = assay: Number of Survivors determined for antitumor activity against P388 Lymphocytic Leukemia system on day 5 at a dose of 120 mg/kg (6 out of 6)
P388 [14] = assay: Number of Survivors determined for antitumor activity against P388 Lymphocytic Leukemia system on day 5 at a dose of 15 mg/kg (6 out of 6)
P388 [15] = assay: Survival rate of the animals determined for antitumor activity against P388 Lymphocytic Leukemia system at a dose of 15 mg/kg
P388 [16] = assay: Number of Survivors determined for antitumor activity against P388 Lymphocytic Leukemia system on day 5 at a dose of 240 mg/kg (6 out of 6)
P388 [17] = assay: Number of Survivors determined for antitumor activity against P388 Lymphocytic Leukemia system on day 5 at a dose of 30 mg/kg (6 out of 6)
P388 [18] = assay: Survival rate of the animals determined for antitumor activity against P388 Lymphocytic Leukemia system at a dose of 240 mg/kg
P388 [19] = assay: Survival rate of the animals determined for antitumor activity against P388 Lymphocytic Leukemia system at a dose of 30 mg/kg
P388 [20] = assay: Number of Survivors determined for antitumor activity against P388 Lymphocytic Leukemia system on day 5 at a dose of 480 mg/kg(6 out of 6)
P388 [21] = assay: Number of Survivors determined for antitumor activity against P388 Lymphocytic Leukemia system on day 5 at a dose of 60 mg/kg (6 out of 6)
P388 [22] = assay: Survival rate of the animals determined for antitumor activity against P388 Lymphocytic Leukemia system at a dose of 480 mg/kg
P388 [23] = assay: Survival rate of the animals determined for antitumor activity against P388 Lymphocytic Leukemia system at a dose of 60 mg/kg
P388 [24] = assay: Survival rate of the animals determined for antitumor activity against P388 Lymphocytic Leukemia system at a dose of 120 mg/kg
P388 [25] = assay: Weight difference observed in survivors treated for antitumor activity against P388 Lymphocytic Leukemia system at a dose of 240 mg/kg
P388 [26] = assay: Weight difference observed in survivors treated for antitumor activity against P388 Lymphocytic Leukemia system at a dose of 30 mg/kg
P388 [27] = assay: Weight difference observed in survivors treated for antitumor activity against P388 Lymphocytic Leukemia system at a dose of 480 mg/kg
P388 [28] = assay: Weight difference observed in survivors treated for antitumor activity against P388 Lymphocytic Leukemia system at a dose of 60 mg/kg
P388 [29] = assay: Weight difference observed in survivors treated for antitumor activity against P388 Lymphocytic Leukemia system at a dose of 120 mg/kg
P388 [30] = assay: Weight difference observed in survivors treated for antitumor activity against P388 Lymphocytic Leukemia system at a dose of 15 mg/kg
P388 [31] = assay: Number of Survivors determined for antitumor activity against P388 Lymphocytic Leukemia system on day 5 at a dose of 240 mg/kg ([…])
P388 [32] = assay: Number of Survivors determined for antitumor activity against P388 Lymphocytic Leukemia system on day 5 at a dose of 10.5 mg/kg (6 out of 6)
P388 [33] = assay: Number of Survivors determined for antitumor activity against P388 Lymphocytic Leukemia system on day 5 at a dose of 21 mg/kg(6 out of 6)
P388 [34] = assay: Weight difference observed in survivors treated for antitumor activity against P388 Lymphocytic Leukemia system at a dose of 84 mg/kg
P388 [35] = assay: Survival rate of the animals determined for antitumor activity against P388 Lymphocytic Leukemia system at a dose of 21 mg/kg
P388 [36] = assay: Number of Survivors determined for antitumor activity against P388 Lymphocytic Leukemia system on day 5 at a dose of 42 mg/kg(6 out of 6)
P388 [37] = assay: Weight difference observed in survivors treated for antitumor activity against P388 Lymphocytic Leukemia system at a dose of 21 mg/kg
P388 [38] = assay: Number of Survivors determined for antitumor activity against P388 Lymphocytic Leukemia system on day 5 at a dose of 42 mg/kg
P388 [39] = assay: Survival rate of the animals determined for antitumor activity against P388 Lymphocytic Leukemia system at a dose of 10.5 mg/kg
P388 [40] = assay: Weight difference observed in survivors treated for antitumor activity against P388 Lymphocytic Leukemia system at a dose of 42 mg/kg
P388 [41] = assay: Weight difference observed in survivors treated for antitumor activity against P388 Lymphocytic Leukemia system at a dose of 10.5 mg/kg
P388 [42] = assay: Number of Survivors determined for antitumor activity against P388 Lymphocytic Leukemia system on day 5 at a dose of 84 mg/kg(6 out of 6)
P388 [43] = assay: Survival rate of the animals determined for antitumor activity against P388 Lymphocytic Leukemia system at a dose of 84 mg/kg
P388 [44] = assay: Survival rate of the animals determined for antitumor activity against P388 Lymphocytic Leukemia system at a dose of 192 mg/kg
P388 [45] = assay: Weight difference observed in survivors treated for antitumor activity against P388 Lymphocytic Leukemia system at a dose of 192 mg/kg
P388 [46] = assay: Weight difference observed in survivors treated for antitumor activity against P388 Lymphocytic Leukemia system at a dose of 96 mg/kg
P388 [47] = assay: Survival rate of the animals determined for antitumor activity against P388 Lymphocytic Leukemia system at a dose of 48 mg/kg
P388 [48] = assay: Weight difference observed in survivors treated for antitumor activity against P388 Lymphocytic Leukemia system at a dose of 24 mg/kg
P388 [49] = assay: Weight difference observed in survivors treated for antitumor activity against P388 Lymphocytic Leukemia system at a dose of 48 mg/kg
P388 [50] = assay: Number of Survivors determined for antitumor activity against P388 Lymphocytic Leukemia system on day 5 at a dose of 96 mg/kg(5 out of 6)
P388 [51] = assay: Survival rate of the animals determined for antitumor activity against P388 Lymphocytic Leukemia system at a dose of 96 mg/kg

Row | Compound | Survivors (P388 [13]) | Survivors (P388 [14]) | T/C (P388 [15]) | Survivors (P388 [17]) | T/C (P388 [18]) | T/C (P388 [19]) | Survivors (P388 [20]) | Survivors (P388 [21]) | T/C (P388 [22]) | T/C (P388 [23]) | T/C (P388 [24]) | T-C (P388 [25]) | T-C (P388 [26]) | T-C (P388 [27]) | T-C (P388 [28]) | T-C (P388 [29]) | T-C (P388 [30]) | also measured
1 | CC(O)C(C)(O)C(=O)OCC1=CC[N+]2([O-])CC[C@@H](O)[C@@H]12 (stereo partly drawn) |  |  |  |  |  |  |  |  |  |  |  |  |  |  |  |  |  | Survivors (P388 [1]): 6; Survivors (P388 [2]): 6; T/C (P388 [3]): 117%; T/C (P388 [4]): 127%; Survivors (P388 [5]): 6; Survivors (P388 [6]): 6; T-C (P388 [7]): 0; T/C (P388 [8]): 131%; T/C (P388 [9]): 115%; T-C (P388 [10]): -0.4; T-C (P388 [11]): -0.4; T-C (P388 [12]): -0.3
2 | CC(C)CC(=O)OCC1=CCN2CC[C@@H](O)[C@@H]12 | 6 | 6 | 105% | 6 | 108% | 109% | 6 | 6 | 114% | 105% | 108% | -0.8 | -0.3 | -2.7 | -0.4 | -0.1 | -0.6 | Survivors (P388 [16]): 6
3 | O=C(Cc1ccccc1)OCC1=CCN2CC[C@@H](O)[C@@H]12 | 6 | 6 | 97% | 6 | 105% | 99% | 6 | 6 | 116% | 97% | 109% | -0.1 | -0.5 | -2.1 | -0.3 | -0.6 | -0.8 | Survivors (P388 [31]): 6
4 | O=C(Cc1ccccc1)OCC1=CC[N+]2([O-])CC[C@@H](O)C12.O=C(OCC1=CC[N+]2([O-])CC[C@@H](O)C12)c1ccccc1 (stereo partly drawn) |  |  |  |  |  |  |  |  |  |  |  |  |  |  |  |  |  | Survivors (P388 [32]): 6; Survivors (P388 [33]): 6; T-C (P388 [34]): 0.1; T/C (P388 [35]): 108%; Survivors (P388 [36]): 6; T-C (P388 [37]): -0.1; T/C (P388 [38]): 117%; T/C (P388 [39]): 104%; T-C (P388 [40]): 0.3; T-C (P388 [41]): 0; Survivors (P388 [42]): 6; T/C (P388 [43]): 114%
5 | CC(C)C(O)(C(=O)OCC1=CC[N+]2([O-])CC[C@@H](O)C12)C(C)O (stereo in doubt; form 2) |  |  |  |  |  |  |  |  |  |  |  |  |  |  |  |  |  | T/C (P388 [44]): 118%; T-C (P388 [45]): -4.8; T-C (P388 [46]): 0.1; T/C (P388 [47]): 100%; T-C (P388 [48]): -0.4; T-C (P388 [49]): 1.3; Survivors (P388 [50]): 5; T/C (P388 [51]): 116%
